The values below are quoted from earlier work in patent publication US20050192267A1, “Use of targeted oxidative therapeutic formulation in treatment of viral diseases” (priority 2004, published 2005).

Data set [1] deals with Hepatitis C. As to conditions: chronic Hepatitis C; used alone.
Data set [2] relates to E. coli. As to conditions: increasing concentration of peroxide ex-vivo in rabbit or human blood.
The test system of data set [3] is peroxide-sensitive E. coli. As to conditions: infused into the blood of infected rabbits.

In the case of `NC(=O)c1ncn([C@@H]2O[C@H](CO)[C@@H](O)[C@H]2O)n1` [Ribavirin, ribavirin], the effectiveness of treatment entry in data set [1] is reported as “does not appear to be effective”.

Take `OO` [hydrogen peroxide, Hydrogen peroxide]: the direct bactericidal activity result in data set [2] is “no evidence of direct bactericidal activity”. Also, the bactericidal effect entry in data set [3] was “no bactericidal effect”.
